Test results from patent US10414811B2, “Protease-resistant lipidated GLP-1 analogs” (MEDIMMUNE LIMITED, priority 2015, dated 2019).
Where two headings read alike, the source gives them in different places.

Legend:
Type in all cases: cell-based
[1] = target: T1, human GLP-1 receptor (GLP-1R) (Homo sapiens, UniProt P43220); assay: cAMP assay, human GLP-1R cells
T1 construct: expressed in transfected cells
Procedure, shortened: (§1)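 Peptide-stimulated cAMP measured by two-step HTRF after a 30 min room-temperature incubation with receptor-expressing cells (hGLP-1R, hGIPR at 1×10^5 cells/ml; hGCGR at 2×10^5 cells/ml). Duplicate dilutions; EC50 from 4-parameter logistic fit of % Delta F.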

[2] = target: T2, human glucagon receptor (GCGR) (Homo sapiens, UniProt P47871); assay: cAMP assay, human GCGR cells; conditions: cAMP assay
T2 construct: expressed in transfected cells
Procedure, shortened: as §1

[3] = target: T3, human glucose-dependent insulinotropic peptide receptor (GIPR) (Homo sapiens, UniProt P48546); assay: cAMP assay, human GIPR cells; conditions: cAMP assay
T3 construct: expressed in transfected cells
T3 sequence (P48546 22-466): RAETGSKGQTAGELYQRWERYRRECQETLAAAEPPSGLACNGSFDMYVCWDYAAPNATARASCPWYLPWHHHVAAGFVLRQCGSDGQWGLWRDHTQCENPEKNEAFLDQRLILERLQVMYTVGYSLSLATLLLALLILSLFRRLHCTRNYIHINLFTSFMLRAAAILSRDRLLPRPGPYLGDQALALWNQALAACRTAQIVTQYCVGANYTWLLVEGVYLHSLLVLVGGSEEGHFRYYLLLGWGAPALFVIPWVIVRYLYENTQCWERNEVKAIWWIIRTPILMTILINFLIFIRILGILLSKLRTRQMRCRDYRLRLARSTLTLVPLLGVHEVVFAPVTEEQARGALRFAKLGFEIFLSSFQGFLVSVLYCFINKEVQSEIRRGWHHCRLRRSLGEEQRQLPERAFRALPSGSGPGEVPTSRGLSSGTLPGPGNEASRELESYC
Procedure, shortened: as §1

[4] = cAMP assay, first determination (n1), read-out: Primary assay EC50 GLP-1R n1
[5] = cAMP assay, second determination (n2), read-out: Primary assay EC50 GLP-1R n2
[6] = mean of n1 and n2, read-out: Mean pM GLP-1R
[7] = first determination (n1), read-out: Primary assay EC50 Gluc-R (n1)
[8] = second determination (n2), read-out: Primary assay EC50 Gluc-R (n2)
[9] = first determination (n1), read-out: Primary assay EC50 GIP-R (n1)
[10] = second determination (n2), read-out: Primary assay EC50 GIP-R (n2)

T1 sequence (P43220 24-463): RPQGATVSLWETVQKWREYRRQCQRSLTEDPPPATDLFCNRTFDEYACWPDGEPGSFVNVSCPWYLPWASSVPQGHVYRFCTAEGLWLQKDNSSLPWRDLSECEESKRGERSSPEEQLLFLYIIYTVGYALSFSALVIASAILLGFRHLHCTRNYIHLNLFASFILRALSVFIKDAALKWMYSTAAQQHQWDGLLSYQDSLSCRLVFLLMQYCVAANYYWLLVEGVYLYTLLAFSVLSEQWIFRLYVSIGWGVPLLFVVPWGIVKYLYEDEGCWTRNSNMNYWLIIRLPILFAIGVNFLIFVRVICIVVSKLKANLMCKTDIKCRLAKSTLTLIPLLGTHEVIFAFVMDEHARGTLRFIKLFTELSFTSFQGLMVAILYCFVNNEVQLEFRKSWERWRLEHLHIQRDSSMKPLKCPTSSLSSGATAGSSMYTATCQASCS
T2 sequence (P47871 26-477): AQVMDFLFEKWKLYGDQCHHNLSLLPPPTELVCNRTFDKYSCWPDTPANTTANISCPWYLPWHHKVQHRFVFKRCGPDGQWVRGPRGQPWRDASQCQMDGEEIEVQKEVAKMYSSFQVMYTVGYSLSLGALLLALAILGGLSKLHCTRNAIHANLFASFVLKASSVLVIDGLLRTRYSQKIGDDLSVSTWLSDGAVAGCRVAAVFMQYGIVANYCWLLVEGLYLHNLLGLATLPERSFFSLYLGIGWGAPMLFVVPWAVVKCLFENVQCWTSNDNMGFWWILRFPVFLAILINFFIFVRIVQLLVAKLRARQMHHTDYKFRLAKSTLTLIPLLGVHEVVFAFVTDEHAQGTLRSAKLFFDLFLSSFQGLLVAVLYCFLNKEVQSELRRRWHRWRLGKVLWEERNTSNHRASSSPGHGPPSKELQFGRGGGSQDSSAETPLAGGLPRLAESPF

| EC50 [1, 4] [pM] | EC50 [1, 5] [pM] | EC50 [1, 6] [pM] | EC50 [2, 7] [nM] | EC50 [2, 8] [nM] | EC50 [3, 9] [nM] | EC50 [3, 10] [nM] | SMILES |
| --- | --- | --- | --- | --- | --- | --- | --- |
| 22 | 15 | 18.2 | ≥ 26 | ≥ 26 | ≥ 26 | ≥ 26 | CCCCCCCCCCCCCCCCCC(=O)NCCCCCC(=O)NCCCCCC(=O)NCCCCCC(=O)NCCCC[C@H](NC(=O)[C@H](C)NC(=O)[C@H](C)NC(=O)[C@H](CCC(=O)O)NC(=O)CNC(=O)[C@H](CCC(=O)O)NC(=O)[C@H](CC(C)C)NC(=O)[C@](C)(Cc1ccccc1)NC(=O)[C@H](CO)NC(=O)[C@](C)(CO)NC(=O)[C@@H](NC(=O)[C@H](CC(=O)O)NC(=O)[C@H](CO)NC(=O)[C@@H](NC(=O)[C@](C)(Cc1ccccc1)NC(=O)[C@H](CO)NC(=O)CNC(=O)[C@H](CCC(=O)O)NC(=O)C(C)(C)NC(=O)[C@@H](N)Cc1c[nH]cn1)[C@@H](C)O)C(C)C)C(=O)N[C@@H](CCC(=O)O)C(=O)N[C@@](C)(Cc1ccccc1)C(=O)N[C@H](C(=O)N[C@@H](C)C(=O)N[C@@](C)(Cc1ccccc1)C(=O)N[C@H](C(=O)N[C@H](C(=O)N[C@@](C)(CCCCN)C(=O)NCC(=O)NCC(N)=O)C(C)C)C(C)C)[C@@H](C)CC [compound 151] |
| 39 | 31 | 34.7 | ≥ 28 | ≥ 28 | ≥ 28 | ≥ 28 | CCCCCCCCCCCCCCCCCC(=O)NCCOCCOCC(=O)NCCCC[C@H](NC(=O)[C@H](C)NC(=O)[C@H](C)NC(=O)[C@H](CCC(=O)O)NC(=O)CNC(=O)[C@H](CCC(=O)O)NC(=O)[C@H](CC(C)C)NC(=O)[C@](C)(Cc1ccccc1)NC(=O)[C@H](CO)NC(=O)[C@](C)(CO)NC(=O)[C@@H](NC(=O)[C@H](CC(=O)O)NC(=O)[C@H](CO)NC(=O)[C@@H](NC(=O)[C@](C)(Cc1ccccc1)NC(=O)[C@H](CO)NC(=O)CNC(=O)[C@H](CCC(=O)O)NC(=O)C(C)(C)NC(=O)[C@@H](N)Cc1c[nH]cn1)[C@@H](C)O)C(C)C)C(=O)N[C@@H](CCC(=O)O)C(=O)N[C@@](C)(Cc1ccccc1)C(=O)N[C@H](C(=O)N[C@@H](C)C(=O)N[C@@](C)(Cc1ccccc1)C(=O)N[C@H](C(=O)N[C@H](C(=O)N[C@@](C)(CCCCN)C(=O)NCC(=O)NCC(N)=O)C(C)C)C(C)C)[C@@H](C)CC [compound 152] |
| 290 | 190 | 238 | ≥ 28 | ≥ 28 | ≥ 28 | ≥ 28 | CC[C@H](C)[C@H](NC(=O)[C@](C)(Cc1ccccc1)NC(=O)[C@H](CCC(=O)O)NC(=O)[C@H](CCCCNC(=O)CC[C@H](NC(=O)CCCCCCCCCCCCCCCCC(=O)O)C(=O)O)NC(=O)[C@H](C)NC(=O)[C@H](C)NC(=O)[C@H](CCC(=O)O)NC(=O)CNC(=O)[C@H](CCC(=O)O)NC(=O)[C@H](CC(C)C)NC(=O)[C@](C)(Cc1ccccc1)NC(=O)[C@H](CO)NC(=O)[C@](C)(CO)NC(=O)[C@@H](NC(=O)[C@H](CC(=O)O)NC(=O)[C@H](CO)NC(=O)[C@@H](NC(=O)[C@](C)(Cc1ccccc1)NC(=O)[C@H](CO)NC(=O)CNC(=O)[C@H](CCC(=O)O)NC(=O)C(C)(C)NC(=O)[C@@H](N)Cc1c[nH]cn1)[C@@H](C)O)C(C)C)C(=O)N[C@@H](C)C(=O)N[C@@](C)(Cc1ccccc1)C(=O)N[C@H](C(=O)N[C@H](C(=O)N[C@@](C)(CCCCN)C(=O)NCC(=O)NCC(N)=O)C(C)C)C(C)C [compound 155] |

The remaining lines, values behind:

| SMILES | EC50 [1, 4] [pM] | EC50 [1, 5] [pM] | EC50 [1, 6] [pM] | EC50 [2, 7] [nM] | EC50 [2, 8] [nM] | EC50 [3, 9] [nM] | EC50 [3, 10] [nM] |
| --- | --- | --- | --- | --- | --- | --- | --- |
| CCCCCCCCCCCCCCCCCC(=O)N[C@@H](CCC(=O)NCCCC[C@H](NC(=O)[C@H](C)NC(=O)[C@H](C)NC(=O)[C@H](CCC(=O)O)NC(=O)CNC(=O)[C@H](CCC(=O)O)NC(=O)[C@H](CC(C)C)NC(=O)[C@](C)(Cc1ccccc1)NC(=O)[C@H](CO)NC(=O)[C@](C)(CO)NC(=O)[C@@H](NC(=O)[C@H](CC(=O)O)NC(=O)[C@H](CO)NC(=O)[C@@H](NC(=O)[C@](C)(Cc1ccccc1)NC(=O)[C@H](CO)NC(=O)CNC(=O)[C@H](CCC(=O)O)NC(=O)C(C)(C)NC(=O)[C@@H](N)Cc1c[nH]cn1)[C@@H](C)O)C(C)C)C(=O)N[C@@H](CCC(=O)O)C(=O)N[C@@](C)(Cc1ccccc1)C(=O)N[C@H](C(=O)N[C@@H](C)C(=O)N[C@@](C)(Cc1ccccc1)C(=O)N[C@H](C(=O)N[C@H](C(=O)N[C@@](C)(CCCCN)C(=O)NCC(=O)NCC(N)=O)C(C)C)C(C)C)[C@@H](C)CC)C(=O)O [compound 146] | 96 | 42 | 69 | ≥ 28 | ≥ 28 | ≥ 28 | ≥ 28 |
| CCCCCCCCCCCCCCCCCC(=O)N[C@@H](CCC(=O)N[C@@H](CCC(=O)NCCCC[C@H](NC(=O)[C@H](C)NC(=O)[C@H](C)NC(=O)[C@H](CCC(=O)O)NC(=O)CNC(=O)[C@H](CCC(=O)O)NC(=O)[C@H](CC(C)C)NC(=O)[C@](C)(Cc1ccccc1)NC(=O)[C@H](CO)NC(=O)[C@](C)(CO)NC(=O)[C@@H](NC(=O)[C@H](CC(=O)O)NC(=O)[C@H](CO)NC(=O)[C@@H](NC(=O)[C@](C)(Cc1ccccc1)NC(=O)[C@H](CO)NC(=O)CNC(=O)[C@H](CCC(=O)O)NC(=O)C(C)(C)NC(=O)[C@@H](N)Cc1c[nH]cn1)[C@@H](C)O)C(C)C)C(=O)N[C@@H](CCC(=O)O)C(=O)N[C@@](C)(Cc1ccccc1)C(=O)N[C@H](C(=O)N[C@@H](C)C(=O)N[C@@](C)(Cc1ccccc1)C(=O)N[C@H](C(=O)N[C@H](C(=O)N[C@@](C)(CCCCN)C(=O)NCC(=O)NCC(N)=O)C(C)C)C(C)C)[C@@H](C)CC)C(=O)O)C(=O)O [compound 147] | 32 | 14 | 23.2 | ≥ 27 | ≥ 27 | ≥ 27 | ≥ 27 |
| CCCCCCCCCCCCCCCCCC(=O)N[C@@H](CCC(=O)N[C@@H](CCC(=O)N[C@@H](CCC(=O)NCCCC[C@H](NC(=O)[C@H](C)NC(=O)[C@H](C)NC(=O)[C@H](CCC(=O)O)NC(=O)CNC(=O)[C@H](CCC(=O)O)NC(=O)[C@H](CC(C)C)NC(=O)[C@](C)(Cc1ccccc1)NC(=O)[C@H](CO)NC(=O)[C@](C)(CO)NC(=O)[C@@H](NC(=O)[C@H](CC(=O)O)NC(=O)[C@H](CO)NC(=O)[C@@H](NC(=O)[C@](C)(Cc1ccccc1)NC(=O)[C@H](CO)NC(=O)CNC(=O)[C@H](CCC(=O)O)NC(=O)C(C)(C)NC(=O)[C@@H](N)Cc1c[nH]cn1)[C@@H](C)O)C(C)C)C(=O)N[C@@H](CCC(=O)O)C(=O)N[C@@](C)(Cc1ccccc1)C(=O)N[C@H](C(=O)N[C@@H](C)C(=O)N[C@@](C)(Cc1ccccc1)C(=O)N[C@H](C(=O)N[C@H](C(=O)N[C@@](C)(CCCCN)C(=O)NCC(=O)NCC(N)=O)C(C)C)C(C)C)[C@@H](C)CC)C(=O)O)C(=O)O)C(=O)O [compound 148] | 16 | 8.7 | 12.1 | ≥ 26 | ≥ 26 | ≥ 26 | ≥ 26 |
| CCCCCCCCCCCCCCCCCC(=O)NCCCCCC(=O)NCCCC[C@H](NC(=O)[C@H](C)NC(=O)[C@H](C)NC(=O)[C@H](CCC(=O)O)NC(=O)CNC(=O)[C@H](CCC(=O)O)NC(=O)[C@H](CC(C)C)NC(=O)[C@](C)(Cc1ccccc1)NC(=O)[C@H](CO)NC(=O)[C@](C)(CO)NC(=O)[C@@H](NC(=O)[C@H](CC(=O)O)NC(=O)[C@H](CO)NC(=O)[C@@H](NC(=O)[C@](C)(Cc1ccccc1)NC(=O)[C@H](CO)NC(=O)CNC(=O)[C@H](CCC(=O)O)NC(=O)C(C)(C)NC(=O)[C@@H](N)Cc1c[nH]cn1)[C@@H](C)O)C(C)C)C(=O)N[C@@H](CCC(=O)O)C(=O)N[C@@](C)(Cc1ccccc1)C(=O)N[C@H](C(=O)N[C@@H](C)C(=O)N[C@@](C)(Cc1ccccc1)C(=O)N[C@H](C(=O)N[C@H](C(=O)N[C@@](C)(CCCCN)C(=O)NCC(=O)NCC(N)=O)C(C)C)C(C)C)[C@@H](C)CC [compound 149] | 81 | 51 | 66.2 | ≥ 28 | ≥ 28 | ≥ 28 | ≥ 28 |
| CCCCCCCCCCCCCCCCCC(=O)NCCCCCC(=O)NCCCCCC(=O)NCCCC[C@H](NC(=O)[C@H](C)NC(=O)[C@H](C)NC(=O)[C@H](CCC(=O)O)NC(=O)CNC(=O)[C@H](CCC(=O)O)NC(=O)[C@H](CC(C)C)NC(=O)[C@](C)(Cc1ccccc1)NC(=O)[C@H](CO)NC(=O)[C@](C)(CO)NC(=O)[C@@H](NC(=O)[C@H](CC(=O)O)NC(=O)[C@H](CO)NC(=O)[C@@H](NC(=O)[C@](C)(Cc1ccccc1)NC(=O)[C@H](CO)NC(=O)CNC(=O)[C@H](CCC(=O)O)NC(=O)C(C)(C)NC(=O)[C@@H](N)Cc1c[nH]cn1)[C@@H](C)O)C(C)C)C(=O)N[C@@H](CCC(=O)O)C(=O)N[C@@](C)(Cc1ccccc1)C(=O)N[C@H](C(=O)N[C@@H](C)C(=O)N[C@@](C)(Cc1ccccc1)C(=O)N[C@H](C(=O)N[C@H](C(=O)N[C@@](C)(CCCCN)C(=O)NCC(=O)NCC(N)=O)C(C)C)C(C)C)[C@@H](C)CC [compound 150] | 28 | 22 | 25.4 | ≥ 27 | ≥ 27 | ≥ 27 | ≥ 27 |
